{"source": "patent US12091378B2", "about": "“Therapeutics for central nervous system disorders” (1GLOBE BIOMEDICAL CO., LTD., priority 2017, dated 2024)", "key": {"[1]": {"test_system": "cerebellar slices", "experiment": "Remyelination on LPC-induced demyelination in cerebellar slices (MBP immunofluorescence)", "format": "cell-based, mice", "conditions": "50 μM, 3 days in culture, LPC 2 mg/mL", "procedure": "Specifically, cerebellar slices from 8 week-old female mice were treated with lysophosphatidylcholine (LPC, 2 mg/mL) to induce demyelination, and then treated with representative compound of the invention, Compound 1 (50 μM), for 3 days in culture. The slices were processed for immunofluorescence staining with anti-MBP antibody. The images were captured with Nikon eclipse TE2000 microscope using Spot Advanced software (version 4.3) at 4×magnification."}, "[2]": {"test_system": "cerebellar slices", "experiment": "Remyelination on CPZ-induced demyelination in cerebellar slices (MBP immunofluorescence)", "format": "cell-based, mice", "conditions": "50 μM, 3 days in culture", "procedure": "Specifically, cerebellar slices from 8 week-old female mice were treated with cuprizone (CPZ) to induce demyelination, and then treated with representative compound of the invention Compound 1 (50 μM) for 3 days in culture. The slices were processed for immunofluorescence staining with anti-MBP antibody. The images were captured with Nikon eclipse TE2000 microscope using Spot Advanced software (version 4.3) at 4×magnification. The fluorescence intensity of MBP of the cerebellar slice in each image was measured with NIH Image J."}, "[3]": {"test_system": "Microglia", "experiment": "LPS/IFN-induced microglia activation (Iba1 positive cells)", "format": "cell-based, mice", "conditions": "50 μM, LPS 10 ng/mL and IFN 20 ng/ml, 48 hours", "procedure": "Microglia from P7 mice were treated with lipopolysaccharide (LPS, 10 ng/mL) and Interferon-gama (IFN, 20 ng/ml) to induce activation of microglia for 48 hours. To determine the effects on LPS/IFN-induced microglia activation, DMF or various embodiments of compounds of the invention (all at 50 μM) were individually added into separate culture samples 30 minutes after LPS/IFN were added. Cells were later fixed and processed for immunofluorescence (IF) staining with anti-Iba1 (ionized calcium-binding adaptor molecule 1) antibody. The number of Iba1 positive cells and the total number of cells (Hochest H33342 positive cells which includes dead and live cells) were quantified from 12 consecutive areas under fluorescent microscope with 20×objective."}, "[4]": {"test_system": "CPZ-induced demyelination", "experiment": "Prophylactic treatment of CPZ-induced demyelination in vivo (LFB staining)", "set-up": "species or system mice", "conditions": "10 mg/kg oral gavage for 7 weeks, formulations HPC or GHI F505-1", "procedure": "As shown in FIGS. 9A-9C, the compound of the present invention (Compound 1) was able to prevent CPZ-induced demyelination in adult female mice. FIG. 9A illustrates the schematic of the study. Eight-week old female mice were fed a diet containing 0.3% (w/w) of CPZ to induce demyelination for 6 weeks. The control mice received regular mouse chow. In the meantime, CPZ fed mice received oral gavage of formulation (Vehicle) or Compound 1 (10 mg/kg) for 7 weeks. At the end of the treatment, mice were perfused, and the brains were collected and processed for analysis. The extent of myelination was examined by staining with Luxol Fast Blue (LFB). Representative images of LFB staining of mouse brain sections are shown in FIG. 9B where midline corpus callosum (CC) is delineated by dotted squares in the top panels (scale bar: 200 μm) and then shown at higher magnification in the lower panels (scale bar: 25 μm). Myelinated axons in the CC from mice fed with normal chow are stained as compacted blue (shown here as gray-colored, same for all following blue-colored pictures). […] Quantitative analysis of myelination of LFB staining is shown in FIG. 9C where myelination is scored as follows: a score of 0 means complete myelination and a score of 4 means complete demyelination. […]"}, "[5]": {"test_system": "CPZ-induced axon damage", "experiment": "Prophylactic treatment of CPZ-induced axonal damage in vivo (Bielschowsky's silver staining)", "set-up": "species or system mice", "conditions": "10 mg/kg oral gavage for 7 weeks, formulations HPC or GHI F505-1", "text": "The mice were fed and treated with the same method as Example 9. The Bielschowsky's silver staining was used to visualize axon fiber in mouse brains. Representative images of silver staining of mouse brains sections are shown in FIG. 10A where midline corpus callosum (CC) is delineated by dotted squares in the top panels (scale bar: 200 μm) and then shown at higher magnification in the lower panels (scale bar: 25 μm). While a linear staining pattern of continuous axon fibers is present in normal control CC, axon damage with interruption of axon fibers and demyelination is observed in the CC of CPZ-treated animals. […] Quantitative analysis of silver-stained axons is shown in FIG. 10B where axon damage is scored as follows: a score of 0 means no axon damage and a score of 4 means complete axon damage. Columns “10-A” and “10-B” indicate samples treated with Compound 1 at 10 mg/kg in formulations HPC or GHI F505-1, respectively. *p<0.05, ***p<0.001 compared with control; ## p<0.01 compared with CPZ with vehicle treatment (n=4 mice)."}, "[6]": {"test_system": "IGF-2", "experiment": "IGF-2 in plasma of CPZ MS animal model (ELISA)", "format": "in vivo", "conditions": "10 mg/kg oral gavage for 7 weeks, CPZ fed mice", "text": "IGF2 is a neurotrophic factor which is essential for the development and regeneration of the nervous system, and plays a pivotal role in adult neurogenesis and cognitive function (see Fernadez A M and Torres-Aleman I, 2007, Nat Rev Neurosci 13(4):225-39; Iwamoto T and Ouchi Y, 2014, Rev Neurosci 25(4):559-74). […] FIG. 11A illustrates the schematic of the study. Experimental setup was similar to that in Example 9: eight-week old female mice were fed a diet containing 0.3% (w/w) of CPZ to induce demyelination for 6 weeks. The control mice received regular mouse chow. In the meantime, CPZ fed mice received oral gavage of formulation (Vehicle) or Compound 1 (10 mg/kg) for 7 weeks. At the end of treatment, the plasma was collected and processed for analysis. The levels of IGF-2 in mouse plasma were measured using ELISA. The scatter plot of IGF-2 concentrations found in individual mice is shown in FIG. 11B. **p<0.01 of CPZ plus Compound 1-treated group compared with control (Ctl), or CPZ-treated group (n=4)."}, "[7]": {"test_system": "CPZ-induced demyelination", "experiment": "Therapeutic treatment of CPZ-induced demyelination in vivo (LFB staining)", "set-up": "species or system mice", "conditions": "for Demyelination (Score of LFB staining): score 0 complete myelination, 4 complete demyelination, average ± SEM; for recovery from CPZ-induced demyelination and axon damage: therapeutic treatment, Examples 12 and 13", "procedure": "As shown in FIGS. 12A-12C, the compound of the present invention was also tested in vivo to determine its therapeutic effect on promoting remyelination on CPZ-induced demyelination in comparison to DMF. Schematic of the study is depicted in FIG. 12A. Eight-week old mice were fed a diet containing 0.3% (w/w) of CPZ to induce demyelination for 6 weeks. The control mice received regular mouse chow. The CPZ fed mice received oral gavage of formulation (Vehicle), DMF or Compound 1 at the beginning of week 6 for two weeks. At the end of treatment, the brains were collected and, post fixed, processed for analysis. The myelin was stained with LFB stain. Representative images of LFB staining of mouse brain sections are shown in FIG. 12B where midline corpus callosum (CC) is delineated by squares in the top panels (scale bar: 200 μm) and then shown at higher magnification in the lower panels (scale bar: 25 μm). Quantitative analysis of myelination of LFB staining is shown in FIG. 12C where myelination is scored as follows: a score of 0 means complete myelination and a score of 4 means complete demyelination. *p<0.05, *** p<0.001 compared with CPZ with vehicle treatment (n=4-6 mice).\n(§1) According to the above Examples 12 and 13, the therapeutic effects of Compound 1 and DMF on CPZ-induced demyelination and axon damage were summarized below where quantitative analysis of myelination and axon integrity in adult female mice was performed and results shown in Table 1. The scoring of myelination and axon damage was performed as described in Example 12 and Example 13. The treatments are as indicated. The average scores and SEM are shown. Statistic differences were analyzed by one way ANOVA followed by Tukey test. *p<0.05, **p<0.01, […] compared with normal control; #p<0.05, ##p<0.01, ###p<0.001 compared with CPZ plus vehicle, §§p<0.01 compared with CPZ plus DMF at 10 mg/kg (n=4-6 mice)."}, "[8]": {"test_system": "CPZ-induced axon damage", "experiment": "Therapeutic treatment of CPZ-induced axon damage in vivo (silver staining)", "set-up": "species or system mice", "conditions": "score 0 no axon damage, 4 complete axon damage, average ± SEM", "text": "Schematic of this study is depicted in FIG. 13A. Eight-week old female mice were fed a diet containing 0.3% (w/w) of CPZ to induce demyelination for 6 weeks. The control mice received regular mouse chow. The CPZ fed mice received oral gavage of formulation (Vehicle), DMF or Compound 1 at the beginning of week 6 for two weeks. At the end of treatment, the brains were collected, and post fixed, processed for morphological analysis. The axons were stained with Bielschowsky's Silver staining. Representative images of silver staining of mouse brain sections are shown in FIG. 13B where midline corpus callosum (CC) is delineated by white squares in the top panels (scale bar: 200 μm) and then shown at higher magnification in the lower panels (scale bar: 25 μm). Quantitative analysis of axon damage of silver staining is shown in FIG. 13C where axon damage is scored as follows: a score of 0 means no axon damage, and a score of 4 means complete axon damage. **p<0.01, ***p<0.001 compared with CPZ plus vehicle; ##p<0.01 compared with CPZ plus DMF (n=4-6 mice).\nas §1"}, "[9]": {"test_system": "MBP, NF, APP, GFAP, Iba1", "experiment": "Molecular markers for myelination, axon integrity and glia activation in brain sections (immunofluorescence)", "format": "in vivo, mouse", "conditions": "CPZ + 10 mg/kg, trend versus CPZ", "procedure": "Effects of Compound 1 on molecule markers relevant to myelination, axon integrity and gliosis were also examined in the brain sections from normal control, CPZ-treated, and CPZ plus Compound 1 treated animals. Molecules in mouse brain sections were stained with respective antibodies by immunofluorescence. The fluorescent intensity of MBP- and NF-labeled fibers were measured with Image J. The number of specific antibody-stained cells in 400×microscopic fields were counted. Although statistic analysis is still in progress, the trends of the effects are clear from the images available so far."}, "[10]": {"test_system": "EAE mouse model", "experiment": "Clinical score of mouse EAE model (pilot study)", "format": "in vivo, C57/BL6 mice", "conditions": "10 mg/ml daily from EAE onset for 20 days", "procedure": "EAE mouse model was induced by inoculation of MOG35-55 protein in adult C57/BL6 mice. Mean clinical score of EAE mice treated with vehicle or Compound 1 (10 mg/ml) for a duration of 42 days after immunization was shown in FIG. 14. The treatments were applied daily from the date of EAE onset for 20 days."}, "[11]": {"test_system": "adult cerebellar granule neurons (CGN)", "experiment": "Adult CGN survival (Cell Counting Kit-8)", "format": "cell-based, mice", "conditions": "50 μM and 10 μM, 48 hours", "procedure": "CGN cells from 8 week-old female mice (C57BL/6) were maintained in neurobasal medium with B27 supplements. 2×10^5 cells were plated in each well of a PLL-coated 48 well plate with 400 μl of culture medium. Various embodiments of novel compounds of the invention at 50 μM (FIG. 8A) and 10 μM (FIG. 8B), CNTF (10 ng/mL) or DMF (50 μM) were added respectively into the cell culture samples for 48 hours. Cell counting solution (Cell Counting Kit-8, Dojindo, 40 μL) was added to the culture, and cells were incubated at 37° C. with 5% CO2 for 20 hours. The optical densities (OD) of absorbance at 450 nm were measured with SpectraMax M3 plate reader."}, "[12]": {"conditions": "0.1 mg/kg oral gavage for two weeks"}, "[13]": {"conditions": "10 mg/kg oral gavage for two weeks"}}, "note": "Counter-ions that a name gives are not always drawn.", "data": [{"smiles": "COC(=O)/C=C/C(=O)OCc1ccc(COC(=O)NC(=N)NC(=N)N(C)C)cc1", "note": "[Compound 1]", "values": [{"measurement": "remyelination on LPC-induced demyelination (MBP fluorescence intensity)", "setting": "[1]", "value": "strong remyelination effects"}, {"measurement": "remyelination on CPZ-induced demyelination (MBP fluorescence intensity)", "setting": "[2]", "value": "promotes remyelination"}, {"measurement": "inhibiting microglia activation (Iba1 positive cells)", "setting": "[3]", "value": "significantly better efficacy in comparison to DMF"}, {"measurement": "prevention of CPZ-induced demyelination (LFB staining)", "setting": "[4]", "value": "prevents CPZ-induced demyelination"}, {"measurement": "prevention of CPZ-induced axon damage (silver staining)", "setting": "[5]", "value": "preserved the continuous staining pattern of axon fibers"}, {"measurement": "level of IGF-2 in mouse plasma", "setting": "[6]", "value": "significantly increase"}, {"measurement": "Demyelination (Score of LFB staining)", "setting": "[7]; [12]", "value": "2.00 ± 0.26"}, {"measurement": "Demyelination (Score of LFB staining)", "setting": "[7]; [13]", "value": "1.33 ± 0.21"}, {"measurement": "recovery from CPZ-induced demyelination and axon damage", "setting": "[7]", "value": "robust recovery"}, {"measurement": "Axon damage (Score of Silver staining)", "setting": "[8]; [12]", "value": "1.33 ± 0.21"}, {"measurement": "Axon damage (Score of Silver staining)", "setting": "[8]; [13]", "value": "0.83 ± 0.31"}, {"measurement": "APP (Axonal damage)", "setting": "[9]", "value": "↓"}, {"measurement": "GFAP (Astrogliosis)", "setting": "[9]", "value": "↓"}, {"measurement": "Iba 1 (Activated microglia)", "setting": "[9]", "value": "↓"}, {"measurement": "MBP (Myelin)", "setting": "[9]", "value": "↑"}, {"measurement": "NF (Neural fibers)", "setting": "[9]", "value": "↑"}, {"measurement": "persistence of effect on clinical score after termination of treatment", "setting": "[10]", "value": "persisted for over two weeks after termination of treatment"}, {"measurement": "average clinical scores versus vehicle", "setting": "[10]; 42 days after immunization, n=5", "value": "significantly lower average clinical scores"}]}, {"smiles": "COC(=O)/C=C/C(=O)OCCCCCCOC(=O)NC(=N)NC(=N)N(C)C", "note": "[Compound 2]", "values": [{"measurement": "inhibiting microglia activation (Iba1 positive cells)", "setting": "[3]", "value": "significant capability for inhibiting microglia activation"}]}, {"smiles": "COC(=O)/C=C/C(=O)OC", "note": "[DMF, dimethyl fumarate, reference compound]", "values": [{"measurement": "effect on adult CGN survival", "setting": "[11]", "value": "little effect"}, {"measurement": "Demyelination (Score of LFB staining)", "setting": "[7]; [13]", "value": "2.25 ± 0.25"}, {"measurement": "recovery from CPZ-induced demyelination and axon damage", "setting": "[7]", "value": "not significant"}, {"measurement": "Axon damage (Score of Silver staining)", "setting": "[8]; [13]", "value": "2.25 ± 0.25"}]}]}
